# Data taken from patent publication US20240218022A1, “ANTI-VISTA MACROCYCLIC PEPTIDES AND COMPOSITIONS” (BRISTOL-MYERS SQUIBB COMPANY, priority 2022, published 2024).
# Read-outs that look alike come from different tables or passages of the source. Starred links: 1 amine or outer side, 2 acyl side, 3 side chain; linkers in the order of their positions; H or OH if unused. Positions of bridges follow the written chain, without caps; N, C: chain ends. Non-standard residues stand in square brackets, D forms with d. Residues, ends and D or L forms follow the SMILES beside them. Morpholine(3S-CO) = O=C(O)[C@@H]1COCCN1; Phe(3-Me) = Cc1cccc(C[C@H](N)C(=O)O)c1; γGlu = O=C(O)[C@H](CCC(=O)[*:2])N[*:1]; 2Nal = N[C@@H](Cc1ccc2ccccc2c1)C(=O)O; βAsp = O=C(O)[C@H](CC(=O)[*:2])N[*:1]; 4Pal = N[C@@H](Cc1ccncc1)C(=O)O; Cit = NC(=O)NCCC[C@H](N)C(=O)O; Ahp(2) = CCCCC[C@H](N)C(=O)O; NMeNle = CCCC[C@H](NC)C(=O)O; Tle = CC(C)(C)[C@H](N)C(=O)O; NMeV = CN[C@H](C(=O)O)C(C)C; NHexGly = CCCCCCNCC(=O)O; Nle = CCCC[C@H](N)C(=O)O; Orn = NCCC[C@H](N)C(=O)O; Aun = NCCCCCCCCCCC(=O)O; AEEA = NCCOCCOCC(=O)O
# Target: T1, mouse VISTA (mVISTA) (Mus musculus, UniProt Q9D659)
# T1 construct: expressed in transfected cells; host or cells: Human embryonic kidney 293T cells
# T1 sequence (Q9D659 33-308): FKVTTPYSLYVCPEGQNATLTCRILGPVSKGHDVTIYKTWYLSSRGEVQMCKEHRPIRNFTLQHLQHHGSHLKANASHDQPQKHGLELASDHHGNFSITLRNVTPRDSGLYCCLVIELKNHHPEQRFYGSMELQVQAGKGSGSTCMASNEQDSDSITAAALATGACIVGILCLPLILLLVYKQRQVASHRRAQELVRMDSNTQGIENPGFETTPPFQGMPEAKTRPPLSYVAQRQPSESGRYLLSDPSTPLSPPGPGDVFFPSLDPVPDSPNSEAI
# Assay: Cell-Based Binding High-Content Assay For mVISTA (HC CBA mVISTA)
# In short: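 This high-content binding assay uses HEK293T cells expressing murine VISTA, measuring displacement of 2 nM biotinylated peptide by fluorescent streptavidin imaging. IC50 values come from four-parameter logistic fitting.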
# [1] = cell-based binding high-content assay, mVISTA, read-out: HC CBA miPr ISTA IC50
# [2] = the 19th table, scaffold drawing 22, read-out: HC CBA mVISTA IC50
# [3] = cell-based binding high-content assay, mVISTA, the 16th table, read-out: HC CBA mVISTA IC50
structure (smiles),measurement,setting,value
CCCCCCN1CC(=O)N[C@@H](Cc2ccc(O)cc2)C(=O)N[C@@H](CCCC)C(=O)N[C@@H](CC(N)=O)C(=O)N[C@@H](CCCNC(=N)N)C(=O)N(C)[C@@H](CCCC)C(=O)N[C@@H](CCCCC)C(=O)N2CCOC[C@H]2C(=O)N[C@@H](C(C)(C)C)C(=O)N[C@@H](CO)C(=O)N[C@H](C(=O)N[C@@H](CC(=O)NCCOCCOCC(=O)NCCCCCCCCCCC(=O)O)C(=O)O)CSCC(=O)N[C@@H](Cc2ccccc2)C(=O)N[C@@H](Cc2c[nH]c3ccccc23)C(=O)N[C@@H](CC(=O)O)C1=O [Example 2192] ({CH2CO}-FWD[NHexGly]Y[Nle]NR[NMeNle][Ahp(2)][Morpholine(3S-CO)][Tle]SC[βAsp][AEEA][Aun]-OH; thioether N-14),IC50,read-out: HC CBA mVISTA IC50,18.6 nM
CCCCCCN1CC(=O)N[C@@H](Cc2ccc(O)cc2)C(=O)N[C@@H](CC(C)C)C(=O)N[C@@H](CC(N)=O)C(=O)N[C@@H](CCCNC(=N)N)C(=O)N[C@@H](CC(C)C)C(=O)N[C@@H](CCCCC)C(=O)N2CCC[C@H]2C(=O)N[C@@H](C(C)C)C(=O)N[C@@H](C(C)C)C(=O)N[C@H](C(=O)NCC(=O)NCCOCCOCC(=O)N[C@@H](CC(=O)O)C(=O)NCCOCCOCC(=O)NCCCCCCCCCCC(=O)O)CSCC(=O)N[C@@H](Cc2ccccc2)C(=O)N[C@@H](Cc2ccc(O)cc2)C(=O)N[C@@H](CC(=O)O)C1=O [compound 2012] ({CH2CO}-FYD[NHexGly]YLNRL[Ahp(2)]PVVCG[AEEA]D[AEEA][Aun]-OH; thioether N-14),IC50,[1],51.3 nM
CCCCCCN1CC(=O)N[C@@H](Cc2ccc(O)cc2)C(=O)N[C@@H](CCCC)C(=O)N[C@@H](CC(=O)O)C(=O)N[C@@H](CCCNC(=N)N)C(=O)N(C)[C@@H](CCCC)C(=O)N[C@@H](CCCCC)C(=O)N2CCC[C@H]2C(=O)N[C@@H](C(C)C)C(=O)N[C@@H](CC(=O)O)C(=O)N[C@H](C(=O)N[C@@H](CO)C(N)=O)CSCC(=O)N[C@@H](Cc2cccc(C)c2)C(=O)N[C@@H](Cc2ccc(O)cc2)C(=O)N[C@@H](CC(=O)O)C1=O [compound 1451] ({CH2CO}-[Phe(3-Me)]YD[NHexGly]Y[Nle]DR[NMeNle][Ahp(2)]PVDCS-NH2; thioether N-14),IC50,[2],8.6 nM
CCCCCCN1CC(=O)N[C@@H](Cc2ccc(O)cc2)C(=O)N[C@@H](CC(C)C)C(=O)N[C@@H](CC(N)=O)C(=O)N[C@@H](CCCNC(=N)N)C(=O)N[C@@H](CC(C)C)C(=O)N[C@@H](CCCCC)C(=O)N2CCC[C@H]2C(=O)N[C@@H](C(C)(C)C)C(=O)N[C@@H](CC(=O)O)C(=O)N[C@H](C(=O)NCCOCCOCC(=O)N[C@@H](CCC(=O)NCCOCCOCC(=O)NCCCCCCCCCCC(=O)O)C(=O)O)CSCC(=O)N[C@@H](Cc2ccccc2)C(=O)N[C@@H](Cc2ccc(O)cc2)C(=O)N[C@@H](CC(=O)O)C1=O [compound 2232] ({CH2CO}-FYD[NHexGly]YLNRL[Ahp(2)]P[Tle]DC[AEEA][γGlu][AEEA][Aun]-OH; thioether N-14),IC50,read-out: HC CBA mVISTA IC50,13 nM
CCCCCCN1CC(=O)N[C@@H](Cc2ccc(O)cc2)C(=O)N[C@@H](CC(C)C)C(=O)NCC(=O)N[C@@H](CCCNC(=N)N)C(=O)N[C@@H](CC(N)=O)C(=O)N[C@@H](CCCCC)C(=O)N2CCC[C@H]2C(=O)N[C@@H](C(C)C)C(=O)N[C@@H](CO)C(=O)N[C@H](C(=O)NCC(=O)O)CSCC(=O)N[C@@H](Cc2ccc3ccccc3c2)C(=O)N[C@@H](Cc2ccc(O)cc2)C(=O)N[C@@H](CC(=O)O)C1=O [Ex 1293] ({CH2CO}-[2Nal]YD[NHexGly]YLGRN[Ahp(2)]PVSCG-OH; thioether N-14),IC50,[3],19.9 nM
CCCCCCN1CC(=O)N[C@@H](Cc2ccc(O)cc2)C(=O)N[C@@H](CCCC)C(=O)N[C@@H](CC(=O)O)C(=O)N[C@@H](CCCNC(=N)N)C(=O)N(C)[C@@H](CCCC)C(=O)N[C@@H](CCCCC)C(=O)N2CCC[C@H]2C(=O)N[C@@H](C(C)C)C(=O)N[C@@H](CC(=O)O)C(=O)N[C@H](C(=O)N[C@@H](CC(=O)O)C(N)=O)CSCC(=O)N[C@@H](Cc2ccc3ccccc3c2)C(=O)N[C@@H](Cc2ccc(O)cc2)C(=O)N[C@@H](CC(=O)O)C1=O [Ex 1266] ({CH2CO}-[2Nal]YD[NHexGly]Y[Nle]DR[NMeNle][Ahp(2)]PVDCD-NH2; thioether N-14),IC50,[3],6.5 nM
CCCCCCN1CC(=O)N[C@@H](Cc2ccc(O)cc2)C(=O)N[C@@H](CC(C)C)C(=O)N[C@@H](CC(N)=O)C(=O)N[C@@H](CCCNC(=N)N)C(=O)N(C)[C@@H](C(C)C)C(=O)N[C@@H](CCCCC)C(=O)N2CCC[C@H]2C(=O)N[C@@H](C(C)(C)C)C(=O)N[C@@H](CC(=O)O)C(=O)N[C@H](C(=O)N[C@@H](CC(=O)NCCOCCOCC(=O)N[C@@H](CC(=O)O)C(=O)NCCOCCOCC(=O)NCCCCCCCCCCC(=O)O)C(=O)O)CSCC(=O)N[C@@H](Cc2ccccc2)C(=O)N[C@@H](Cc2c[nH]c3ccccc23)C(=O)N[C@@H](CC(=O)O)C1=O [compound 2040] ({CH2CO}-FWD[NHexGly]YLNR[NMeV][Ahp(2)]P[Tle]DC[βAsp][AEEA]D[AEEA][Aun]-OH; thioether N-14),IC50,[1],40.7 nM
CCCCCCN1CC(=O)N[C@@H](Cc2ccc(O)cc2)C(=O)N[C@@H](CCCC)C(=O)N[C@@H](CC(N)=O)C(=O)N[C@@H](CCCNC(=N)N)C(=O)N(C)[C@@H](CCCC)C(=O)N[C@@H](CCCCC)C(=O)N2CCC[C@H]2C(=O)N[C@@H](C(C)(C)C)C(=O)N[C@@H](CO)C(=O)N[C@H](C(=O)NCCOCCOCC(=O)N[C@@H](CCC(=O)NCCOCCOCC(=O)NCCCCCCCCCCC(=O)O)C(=O)O)CSCC(=O)N[C@@H](Cc2ccncc2)C(=O)N[C@@H](Cc2ccc(O)cc2)C(=O)N[C@@H](CC(=O)O)C1=O [compound 2257] ({CH2CO}-[4Pal]YD[NHexGly]Y[Nle]NR[NMeNle][Ahp(2)]P[Tle]SC[AEEA][γGlu][AEEA][Aun]-OH; thioether N-14),IC50,read-out: HC CBA mVISTA IC50,40.4 nM
CCCCCCN1CC(=O)N[C@@H](Cc2ccc(O)cc2)C(=O)N[C@@H](CCCC)C(=O)N[C@@H](CC(N)=O)C(=O)N[C@@H](CCCNC(=N)N)C(=O)N(C)[C@@H](CCCC)C(=O)N[C@@H](CCCCC)C(=O)N2CCC[C@H]2C(=O)N[C@@H](C(C)C)C(=O)N[C@@H](CC(=O)O)C(=O)N[C@H](C(=O)NCCOCCOCC(=O)N[C@@H](CCC(=O)NCCOCCOCC(=O)NCCCCCCCCCCC(=O)O)C(=O)O)CSCC(=O)N[C@@H](Cc2ccccc2)C(=O)N[C@@H](Cc2c[nH]c3ccccc23)C(=O)N[C@@H](CC(=O)O)C1=O [compound 2218] ({CH2CO}-FWD[NHexGly]Y[Nle]NR[NMeNle][Ahp(2)]PVDC[AEEA][γGlu][AEEA][Aun]-OH; thioether N-14),IC50,read-out: HC CBA mVISTA IC50,11.5 nM
CCCCCCN1CC(=O)N[C@@H](Cc2ccc(O)cc2)C(=O)N[C@@H](CCCC)C(=O)N[C@@H](CC(N)=O)C(=O)N[C@@H](CCCNC(N)=O)C(=O)N(C)[C@@H](CCCC)C(=O)N[C@@H](CCCCC)C(=O)N2CCC[C@H]2C(=O)N[C@@H](C(C)C)C(=O)N[C@@H](CC(=O)O)C(=O)N[C@H](C(=O)NCC(=O)O)CSCC(=O)N[C@@H](Cc2ccccc2)C(=O)N[C@@H](Cc2c[nH]c3ccccc23)C(=O)N[C@@H](CC(=O)O)C1=O [Example 1387] ({CH2CO}-FWD[NHexGly]Y[Nle]N[Cit][NMeNle][Ahp(2)]PVDCG-OH; thioether N-14),IC50,read-out: HC CBA mVISTA IC50,5.3 nM
CCCCCCN1CC(=O)N[C@@H](Cc2ccc(O)cc2)C(=O)N[C@@H](CCCC)C(=O)N[C@@H](CC(=O)O)C(=O)N[C@@H](CCCN)C(=O)N(C)[C@@H](CCCC)C(=O)N[C@@H](CCCCC)C(=O)N2CCC[C@H]2C(=O)N[C@@H](C(C)C)C(=O)N[C@@H](CC(=O)O)C(=O)N[C@H](C(=O)N[C@@H](CC(=O)O)C(N)=O)CSCC(=O)N[C@@H](Cc2cccc(C)c2)C(=O)N[C@@H](Cc2ccc(O)cc2)C(=O)N[C@@H](CC(=O)O)C1=O [compound 1449] ({CH2CO}-[Phe(3-Me)]YD[NHexGly]Y[Nle]D[Orn][NMeNle][Ahp(2)]PVDCD-NH2; thioether N-14),IC50,[2],10.8 nM
CCCCCCN1CC(=O)N[C@@H](Cc2ccc(O)cc2)C(=O)N[C@@H](C)C(=O)N[C@@H](CC(N)=O)C(=O)N[C@@H](CCCN)C(=O)N(C)[C@@H](CCCC)C(=O)N[C@@H](CCCCC)C(=O)N2CCC[C@H]2C(=O)N[C@@H](C(C)(C)C)C(=O)N[C@@H](CO)C(=O)N[C@H](C(=O)N[C@@H](CC(=O)NCCOCCOCC(=O)N[C@@H](CC(=O)O)C(=O)NCCOCCOCC(=O)NCCCCCCCCCCC(=O)O)C(=O)O)CSCC(=O)N[C@@H](Cc2ccccc2)C(=O)N[C@@H](Cc2c[nH]c3ccccc23)C(=O)N[C@@H](CC(=O)O)C1=O [compound 2093] ({CH2CO}-FWD[NHexGly]YAN[Orn][NMeNle][Ahp(2)]P[Tle]SC[βAsp][AEEA]D[AEEA][Aun]-OH; thioether N-14),IC50,"cell-based binding high-content assay, mVISTA, read-out: HC CBA miPrISTA IC50",22.1 nM
CCCCCCN1CC(=O)N[C@@H](Cc2ccc(O)cc2)C(=O)N[C@@H](CC(C)C)C(=O)N[C@@H](CC(N)=O)C(=O)N[C@@H](CCCN)C(=O)N(C)[C@@H](CCCC)C(=O)N[C@@H](CCCCC)C(=O)N2CCC[C@H]2C(=O)N[C@@H](C(C)(C)C)C(=O)N[C@@H](CO)C(=O)N[C@H](C(=O)N[C@@H](CC(=O)NCCOCCOCC(=O)N[C@@H](CC(=O)O)C(=O)NCCOCCOCC(=O)NCCCCCCCCCCC(=O)O)C(=O)O)CSCC(=O)N[C@@H](Cc2ccccc2)C(=O)N[C@@H](Cc2ccc(O)cc2)C(=O)N[C@@H](CC(=O)O)C1=O [compound 2045] ({CH2CO}-FYD[NHexGly]YLN[Orn][NMeNle][Ahp(2)]P[Tle]SC[βAsp][AEEA]D[AEEA][Aun]-OH; thioether N-14),IC50,[1],20.1 nM
